Experimental findings from PubChem BioAssay (NCI) are described below.

Test in all cases: growth of human tumour cells (NCI), 48 h
Test [1] has as its system KM12 colon.
In test [2] the test system is SNB-19 CNS.
In test [3] the test system is CAKI-1 renal.
Test [4] concerns BT-549 breast.
Test [5] concerns LOX IMVI melanoma.
In test [6] the test system is PC-3 prostate.
Test [7] has as its system RXF 393 renal.
The subject of test [8] is HL-60(TB) leukemia.
The subject of test [9] is SF-295 CNS.
Test [10] has as its system SK-OV-3 ovarian.

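Interpolation was linear, between the two tested concentrations surrounding the appropriate level; five concentrations were tested over 48 hours in 96-well plates. Abbreviation: GI50, concentration required for 50% inhibition of growth. TGI marks complete inhibition of growth.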

Regarding `O=c1c2ccccc2n(C[C@H]2CO2)c2ccccc12`, the GI50 in test [1] was 2.19 µM; in [2], 2.3 µM; in [3] it was 1.83 µM; in test [4], 1.91 µM; in [5] it was 1.51 µM; in test [6] it was 2.04 µM. The GI50 is 1.39 µM in test [7], 1.28 µM in [8], 2.91 µM in test [9] and 2.64 µM in [10]. The TGI is 7.02 µM in test [1]; 7.79 µM in [2]; 8.26 µM in [3]; 6.08 µM in test [4]; 3.15 µM in [5]; 8.34 µM in test [6]. The TGI was determined as 2.82 µM in test [7], 3.29 µM in test [8], 9.44 µM in test [9] and 7.33 µM in test [10].

On to `O=C(CNc1ccc2c(c1)C(=O)c1ccccc1C2=O)Nc1ccc2c(c1)C(=O)c1ccccc1C2=O`, for which the GI50 was 1.4 µM in test [1]; 1.45 µM in test [2]; 1.5 µM in test [3]; 0.641 µM in [4]; 0.142 µM in test [5]; 1.29 µM in test [6]. Also, the GI50 in [7] is 0.687 µM; in test [8], 1.57 µM; in test [9], 1.46 µM; in [10], 1.82 µM. In addition, the TGI in test [1] amounted to 2.73 µM; in test [2], 2.9 µM; in test [3], 3.03 µM; in test [4], 1.99 µM; in [5], 0.317 µM; in test [6], 3.48 µM. Moreover, the TGI in test [7] is 2.04 µM; in [8], 4.35 µM; in test [9], 2.89 µM; in test [10], 6.99 µM.

On to `N#Cc1nc2c(S(=O)(=O)c3ccccc3)c(N)n(Cc3cccnc3)c2nc1C#N`, for which the GI50 in test [1] was above 100 µM; in test [2], 21.9 µM; in test [3] it was 7.47 µM; in test [4] it was 4.6 µM; in test [5], 25.8 µM; in test [6], above 100 µM. Besides, the GI50 is 2.47 µM in test [7], 3.71 µM in test [8], 20.5 µM in test [9] and 18.8 µM in test [10]. The TGI in [1] was above 100 µM; in test [2], 72.4 µM; in test [3], above 100 µM; in test [4], 37.3 µM; in [5] it was above 100 µM; in test [6], above 100 µM. Besides, the TGI in test [7] is 9.1 µM; in [8], above 100 µM; in [9], 50.7 µM; in test [10], 67.5 µM.

Regarding `Cn1c(/C=C(\C#N)c2ccccc2)nc2c(N3CCOCC3)nc(Cl)nc21`, the GI50 was 1.87 µM in test [1]; 1.6 µM in test [2]; 0.824 µM in [3]; 0.711 µM in [4]; 0.324 µM in test [5]; 0.849 µM in [6]. The GI50 was 0.89 µM in test [7], 0.462 µM in [8], 1.98 µM in [9] and 4.54 µM in test [10]. For the same compound, the TGI in test [1] came out at 3.77 µM; in [2] it was 3.09 µM; in test [3], 2.21 µM; in test [4], 2.07 µM; in [5], 1.25 µM; in [6], 2.99 µM. The TGI in test [7] came to 2.14 µM; in test [8], 2.61 µM; in test [9], 4.32 µM; in [10], 16.2 µM.

For `COC1CC2CCC(C)C(O)(O2)C(=O)C(=O)N2CCCCC2C(=O)OC(C(C)CC2CCC(O)C(OC)C2)CC(=O)C(C)C=C(C)C(O)C(OC)C(=O)C(C)CC(C)/C=C/C=C/C=C1C` (stereo not given), the GI50 is 3.47 µM in test [1]; 1.45 µM in test [2]; 2.58 µM in [3]; 0.00609 µM in test [4]; 0.015 µM in [5]; below 0.005 µM in test [6]. For the same compound, the GI50 in test [7] is below 0.005 µM; in test [8] it was 10.2 µM; in test [9], below 0.005 µM; in test [10] it was below 0.005 µM. The TGI in test [1] was 11.2 µM; in [2], 17 µM; in test [3], 47.8 µM; in test [4], 11 µM; in [5] it was 13.1 µM; in test [6], 13 µM. Also, the TGI stood at 7.48 µM in [7], 23.6 µM in test [8], 7.76 µM in [9] and 10.7 µM in test [10].

For `Ic1ccccc1-c1ccccc1`, the GI50 in test [1] was above 100 µM; in test [2], above 100 µM; in test [3], above 100 µM; in [4], above 100 µM; in test [5], 42.4 µM; in test [6] it was above 100 µM. For the same compound, the GI50 is 89.1 µM in [7], 37.1 µM in test [8], above 100 µM in [9] and above 100 µM in [10]. Besides, the TGI in test [1], in [2], in test [3], in test [4], in test [5] and in [6] was above 100 µM in each case. Besides, the TGI in test [7], in test [8], in [9] and in test [10] was above 100 µM each time.

With `O=C1NC(O)C(c2c[nH]c3ccccc23)=C1c1c[nH]c2ccccc12` (stereo not given), the GI50 in [1] was above 25 µM; in test [2], above 25 µM; in test [3], above 25 µM; in test [4] it was above 25 µM; in test [5], above 22.5 µM; in test [6], 24.8 µM. Besides, the GI50 in test [7], in test [8], in test [9] and in [10] was above 25 µM each time. For the same compound, the TGI in [1], in test [2], in test [3], in [4], in test [5] and in test [6] was above 25 µM in each case. For the same compound, the TGI in test [7], in test [8], in test [9] and in test [10] was above 25 µM throughout.

With `C=C(CN1C(=O)[C@H]2CCCN2C(=O)c2ccccc21)c1ccc(C(=O)O)cc1`, the GI50 in [1], in test [2], in test [3], in [4], in [5] and in test [6] was above 100 µM throughout. For the same compound, the GI50 in test [7], in test [8], in test [9] and in [10] was above 100 µM each time. In addition, the TGI in [1], in test [2], in [3], in [4], in test [5] and in test [6] was above 100 µM throughout. Besides, the TGI in test [7], in test [8], in test [9] and in test [10] was above 100 µM throughout.
